Test results as given in patent publication US9579364B2, “Methods for treating benign prostatic hypertrophy (BPH)” (New York University, priority 2002, dated 2017).
Marks after values point to notes of the source that are not given here. Bridge positions count the residues as written; N and C are the ends. Square brackets hold non-standard residues; d marks the D form. Peptide text beside a SMILES is read from it. dDab = NCC[C@@H](N)C(=O)O

Tests used:
[1] = system: prostate of castrated IGF-I^(−/−) male mice; experiment: Prostate glandular tree development, castrated IGF-I(-/-) male mice treated 28 days; type: in vivo; settings: 28 days treatment
Protocol: These include transgenic mice overexpressing a GH antagonist (that binds to and inactivates GH receptors making the animals functionally deficient in GH), growth hormone releasing factor receptor (GHRH-R^−/−) knockout mice (Lit/Lit), and Ames (df/df) mice (Prop 1 Deficiency). Deficient prostate development in GH inhibitor overexpression animals was previously reported (see Ruan et al, Endocrinology 140:1984-1989, 1999). Analysis of development was determined by dissecting away the periprostatic fat and teasing the glandular structures from the connective tissue in a solution containing collagenase so that the entire glandular tree could be photographed for later structural analysis. Much the same as in the mice overexpressing the mutant growth hormone, the other GH deficient mice had significant impairment of prostate development (p<0.0002) including a reduction in the number of terminal duct tips (TDTs), the area of the prostate gland, the number of quaternary branches and the number of branch points (TABLE 3). Any differences in these GH deficient mice may in part be due to the fact that the different strains were not analyzed at exactly the same age (Lit/Lit 50 days old, Ames 47 days old and bGH transgenic 44 days of age). The n was also different which may have led to greater significance in the Lit/Lit mice.
To clearly differentiate between the effects of IGF-I and T on development of the prostate gland, hormone replacement experiments were conducted on IGF-I^(−/−) male mice that had been castrated. In addition to evaluating the effect of IGF-I and T on gland structure development described above, we also evaluated the relative effects of these hormones on development of the stromal compartment of the prostate and also on histology of the glandular compartment. This was accomplished by sectioning and staining the prostate to highlight aspects of development.
Castrated IGF-I^(−/−) male mice were treated with T (administered by silastic capsules embedded on the backs of animals, subcutaneously). Des (1-3) IGF-I (40 μg/pump) was also implanted subcutaneously.

IGF-I receptor = IGF-I receptor immunopositive cells in prostate elements; type: in vivo
[2] = system: probasin in epithelial cells of the prostate; experiment: Probasin immunostaining of prostate sections (FIG. 6); type: in vivo, mice; settings: FIG. 6(i-l)
Text: FIG. 6 depicts the effect of IGF-1 and/or T on histological appearance of prostate glands during development. Sections are shown through prostate glands from control animals (a, e, i) and animals treated with T alone (b, f, j), IGF-I alone (c, g, k), and IGF-I plus T (d, h, i). […] (i-1) Probasin immunostaining, brown color in the epithelial cells of the prostate. Magnification ×400.
The relative effects of IGF-I and T on prostate development were also studied in histological sections of whole prostate. This allowed determination of such effects on glandular microstructure and the stromal compartment of the prostate.
FIG. 6 depicts sections through prostate glands from control animals (FIG. 6(a, e, i)), animals treated with T alone (FIG. 6(b, f, j)), IGF-I alone (FIG. 6(c, g, k)), and IGF-I plus T (FIG. 6(d, h, i)).

[3] = system: prostate of IGF-I^(−/−) null male mice; experiment: Restoration of prostate development in IGF-I(-/-) null male mice; type: in vivo
Text: That IGF-I was also found to be essential for full prostate development was shown in a series of experiments employing IGF-I^(−/−) null male mice.

[4] = system: prostate of castrated IGF-I^(−/−) null male mice; experiment: Morphometry of histological prostate sections, castrated IGF-I(-/-) null male mice treated 7 days; type: in vivo
Protocol: Groups of castrated IGF-I^(−/−) null male mice were treated with either vehicle, testosterone in silastic capsules, des(1-3) IGF-I by an infusion through an Alzet pump containing 20 μg per pump, or the combination of testosterone and IGF-I for a period of 7 days.
In order to determine which specific structure was affected by which hormone, entire urogenital complexes were embedded in paraffin blocks, including the prostate glands, coagulating glands, seminal vesicles, urethra, urinary bladder attached to parts of the ureter, vas deferens, and ampullary glands. These were carefully sectioned such that the areas of prostate development could be analyzed.
The prostates were then removed, fixed and examined histologically. Morphometric analysis was carried on 30 cross sections of the prostate taken from five different serial sections. Changes in the area of the lumen, epithelial layer and fibromuscular layer were determined. These counts were performed using a Provis ×70 microscope (Olympus) attached to an Olympus DP10 digital camera. Images were taken using a 20× apochromate objective and were captured digitally at a resolution of 386 pixels. Data were tested for statistical significance using the SPSS statistical computer program (SPSS, Inc., Chicago, Ill.). Since assumptions for a parametric test were not valid (Kolmogorov-Sminov p<0.05), all data were evaluated by Kruskall-Wallis analysis of variance and the Mann-Whitney U test as a multiple comparison method.

[5] = system: prostate of intact 28 day old male mice; experiment: PQ401 or SS14 treatment of intact 28 day old male mice: prostate; type: in vivo
Protocol: To examine further the effect of various compounds on glandular and fibromuscular development of the prostate, somatostatin-14 (SS14, a native somatostatin) and an exemplary small molecule IGF-I receptor inhibitor PQ401 were assessed in a variety of animal models.
In a first experimental approach, the effect of treatment of intact 28 day old male mice with vehicle or PQ401 (a small molecule IGF-I receptor specific inhibitor) or somatostatin-14 (SS14; a native somatostatin) was evaluated. PQ401 and SS14 inhibit IGF-I action. For these experiments, N=5 mice per group. The results of these experiments are presented below in Tables 7-10: […]

IGF-IR signaling = settings: chemical library screen; cited from earlier work
[6] = cited from earlier work
[7] = system: all five somatostatin receptor subtypes; settings: cited from earlier work
[8] = castrated IGF-I knockout male mice, 7 days treatment
[9] = castrated at 56 days, hormones for 7 days (Table 5)

## C[C@]12CC[C@H]3[C@@H](CCC4=CC(=O)CC[C@@]43C)[C@@H]1CC[C@@H]2O [TESTOSTERONE, testosterone]
[1]
  4°- branching, ventral prostate: 8.0 ± 0.6 ^a
  Area, dorsal prostate: 0.15 ± 0.01 ^a cm^2
  Area, ventral prostate: 0.16 ± 0.01 ^a cm^2
  Branch Points, ventral prostate: 12.0 ± 1.2 ^
  Terminal Duct Tips, dorsal prostate: 17.0 ± 1.2 ^a
  Terminal Duct Tips, ventral prostate: 16.3 ± 1.2 ^
  Width of TDTs, dorsal prostate: 0.227 ± 0.003 ^b mm
  Width of TDTs, ventral prostate: 0.236 ± 0.003 ^b mm
IGF-I receptor; prostate epithelium
  % IGF-I receptor immunopositive cells, epithelium: 0%
IGF-I receptor; prostate fibromuscular elements
  % IGF-I receptor immunopositive cells, fibromuscular: 95 ± 0.4%
[2]
  probasin immunostaining in the epithelial cells of the prostate: scattered number of probasin immunopositive epithelial cells
[3]
  restoring impaired prostate development: partially but significantly restored
[4]; [8]
  Area of prostatic component (mean values): Eptithelium: Eptithelium = 84,551.64 μm^2
  Area of prostatic component (mean values): Lumen: Lumen = 369,495.45 μm^2
  Area of prostatic component (mean values): Stroma (connective-muscle): Stroma (connective-muscle) = 89,797.254 μm^2
  Area of prostatic components (mean values): Total: Total = 543,844.34 μm^2
  Percentage of area: Eptithelium: 15%
  Percentage of area: Lumen: 69%
  Percentage of area: Stroma (connective-muscle): 16%
[4]; [9]
  Mean area of prostatic component: Epithelium: 84 × 10^3 μm^2
  Mean area of prostatic component: Fibromuscular tissue: 89 × 10^3 μm^2
  Mean area of prostatic component: Lumen: 369 × 10^3 μm^2
  Mean section size: 543 × 10^3a μm^2
  percentage occupied: Epithelium: (15%)^a
  percentage occupied: Fibromuscular tissue: (16%)^b
  percentage occupied: Lumen: (69%)^a

## COc1ccc(Cl)cc1NC(=O)Nc1cc(C)nc2ccccc12 [PQ401]
[5]; 28 day old male mice, controls 0.939
  area of the Longitudinal muscle: 0.868 mm^2
[5]; 28 day old male mice, controls 1.322
  total area of the Circular muscle: 0.789 mm^2
[5]; intact 28 day old male mice, vs 28 day control
  % Reduction of prostate weight: 31%
[5]; intact 28 day old male mice, control 26.8 ± 1.0, p < 0.0001
  prostate weight: 18.4 ± 0.5 mg
IGF-IR signaling
  inhibition of IGF-IR signaling: potent inhibitor

## C[C@@H](O)[C@@H]1NC(=O)[C@H](CCCCN)NC(=O)[C@@H](Cc2c[nH]c3ccccc23)NC(=O)[C@H](Cc2ccccc2)NC(=O)[C@H](Cc2ccccc2)NC(=O)[C@H](CCCNC(=N)N)NC(=O)[C@H](NC(=O)[C@@H](N)Cc2ccc(O)cc2)CCNC(=O)[C@H](Cc2ccccc2)NC1=O [KE108] (H-Y[dDab]RFF[dW]KTF; lactam 2-C)
[6]
  stability in human serum: stable for several hours
[7]
  affinity for all five somatostatin receptor subtypes: extremely high affinity
